Test results published in patent US9421281B2, “Target vector with activable imaging function” (Centre National de la Recherche Scientifique, priority 2005, dated 2016).

How the values were obtained:
Hekβ3 cells = assay: Penetration into the cells, laser scanning confocal microscopy; assay type: cell-based; details: 1 to 2 hours of incubation
Protocol: FIG. 13: Penetration of the labels into the cells, imaged by laser scanning confocal microscopy. Hekβ3 cells after 1 to 2 hours incubation in the presence of a negative control RAFT(4cRAD)-Cy5 (column 1), or in the presence of RAFT(4cRGD)-Cy5 (column 2), RAFT(4cRGD)-Cy5-Cys-S—S-Cys-Cy5 (column 3), or RAFT(4cRGD)-Cy5-Cys-S—S-Cys-quencher (column 4). The penetration into the cells of the probes RAFT-(cRGD)4-Cy5, RAFT-(cRGD)4-Cy5-Cys-S—S-Cys-Cy5 and RAFT-(cRGD)4-Cy5-Cys-S—S-Cys-QSY21 was observed on Hekβ3 cells, after 1 to 2 hours of incubation.

[1] = Chemical cleavage of the disulfide bridge with 2-mercaptoethanol (absorption and fluorescence); assay type: physicochemical; details: for fluorescence after chemical cleavage of the S—S disulfide bridge: imaging function grafted onto RAFT-(cRGD)4, 10 mM PBS, pH 7.2, [2-MCE]=85 mM; for fluorescence of the Cy5 fluorophore(s) before cleavage of the disulfide bridge: imaging function grafted onto RAFT-(cRGD)4, 0.5 or 0.10 μM in 10 mM PBS, pH 7.2
From the text: FIG. 5: Absorption and fluorescence of the imaging function Cy5-Cys-S—S-Cys-Cy5 before and after chemical cleavage of the disulfide bridge with 2-mercaptoethanol (2-MCE). A. Absorption spectrum and evolution thereof over time during the addition of 2-MCE. […] C. Evolution over time of the fluorescence of the imaging function during the addition of 2-MCE. […] FIG. 6: Absorption and fluorescence of the imaging function Cy5-Cys-S—S-Cys-QSY21 before and after chemical cleavage of the disulfide bridge with 2-mercaptoethanol (2-MCE). A. Absorption spectra and evolution thereof over time during the addition of 2-MCE. […] C. Evolution over time of the fluorescence of the imaging function during the addition of 2-MCE. […] FIG. 10: Absorption and fluorescence of the imaging function Cy5-Cys-S—S-Cys-Cy5 grafted onto RAFT-(cRGD)4, before and after chemical cleavage of the disulfide bridge with 2-mercaptoethanol (2-MCE). A. Absorption spectrum and evolution thereof over time during the addition of 2-MCE. […] C. Evolution over time of the fluorescence of the imaging function during the addition of 2-MCE. […] FIG. 11: Absorption and fluorescence of the imaging function Cy5-Cys-S—S-Cys-QSY21 grafted onto RAFT-(cRGD)4, before and after chemical cleavage of the disulfide bridge with 2-mercaptoethanol (2-MCE). A. Absorption spectrum and evolution thereof over time during the addition of 2-MCE. […] C. Evolution over time of the fluorescence of the imaging function during the addition of 2-MCE.

[2] = system: subcutaneous tumor of IGROV-1 type; assay: Optical imaging of tumors in the nude mouse (fluorescence reflectance imaging); assay type: in vivo, nude mice; details: 10 nmol/mouse i.v.; for evolution of the signal in the tumor over time / signal in the tumor compared with the control probe: IGROV-1 tumor, FIG. 12A; for contrast, ratio of signal between the tumor and the skin: compared with RAFT-(cRGD)4-Cy5-Cys-S—S-cysteine, FIG. 12B
Protocol: FIG. 12: Results of the in vivo injection of the molecular probes RAFT-(cRGD)4-Cy5-Cys-S—S-Cys=Cy5, RAFT-(cRGD)4-Cy5-Cys-S—S-Cys-QSY21, and RAFT-(cRGD)4-Cy5-Cys-S—S-Cys (control) in nude mice, imaged using a fluorescence imaging device (excitation 633 nm; detection λ>670 nm). Intravenous injection of 10 nmol of probe/mouse, in 100 μL of PBS (pH 7.1, 9.5 mM), into the tail of anesthetized mice carrying, on the back, a subcutaneous tumor of IGROV-1 type ([…] injected subcutaneously 2 weeks before imaging). A. Fluorescence intensity measured in the tumor over time. B. Ratio of the fluorescence intensities measured in the tumor and in the skin over time. C. Images obtained 10 minutes and 5 h after injection for the various molecular probes.
The mice used are female nude mice 6 to 8 weeks old, maintained under pathogen-free conditions. The IGROV-1 cells (human ovarian cancer model) are cultured in an RPMI 1640 culture medium containing 1% of glutamine, 10% of FCS, 50 U/ml of penicillin and 50 μg/ml of streptomycin. The cells are maintained at 37° C. under a humid atmosphere with 5% of CO2. 10×10^6 cells are injected subcutaneously into the back of the mice 2 weeks before injection of the molecular vectors RAFT-(cRGD)4-Cy5-Cys-S—S-Cys-Cy5 and RAFT-(cRGD)4-Cy5-Cys-S—S-Cys-QSY21. The latter are injected into the tail intravenously, in 100 μl of PBS (pH 7.1, 9.5 mM), at doses of 10 nmol/mouse.
The anesthetized mice are imaged with a fluorescence reflectance imaging (FRI) device, comprising as excitation source a crown of LEDs equipped with interference filters, emitting at 633 nm (illumination power 50 μW·cm^−2). The images are collected after filtration with an RG665 colored filter of optical density>5 at the excitation wavelength by means of a CCD camera (Orca BTL, Hamamatsu), with an exposure time of 100 ms. The signals are quantified using image processing software.

| Substance | penetration into the cells (location of fluorescence) (Hekβ3 cells) | fluorescence after chemical cleavage of the S—S disulfide bridge [1] | fluorescence of the Cy5 fluorophore(s) before cleavage of the disulfide bridge [1] | evolution of the signal in the tumor over time [2] | signal in the tumor compared with the control probe [2] | contrast, ratio of signal between the tumor and the skin [2] | penetration into the cells (location of fluorescence) (Hekβ3 cells; listed as RAFT-Cy5-Cys-S—S-Cys-Q) |
| --- | --- | --- | --- | --- | --- | --- | --- |
| cysteine(Cy5)-S—S-cysteine(Cy5)RAFTc[RGDfK-]4 [RAFT-(cRGD)4-Cy5-Cys-S—S-Cys-Cy5] | does not enter well | completely released | initially self-quenched | gradual appearance of the signal in the tumor | more signal in the tumor | increases | – |
| cysteine(Cy5)-S—S-cysteine(QSY21)RAFTc[RGDfK-]4 [RAFT-(cRGD)4-Cy5-Cys-S—S-Cys-QSY21] | clear fluorescence inside the cells | completely released | initially self-quenched | gradual appearance of the signal in the tumor | more signal in the tumor | increases | penetrates into the cells better |
| cysteine(Cy5)-S—S-cysteineRAFTc[RGDfK-]4 [RAFT-(cRGD)4-Cy5-Cys-S—S-cysteine, reference compound] | – | – | – | decreases very rapidly over time | – | – | – |
